Measured values: patent US6897219B2, “Heteroaryl diazacycloalkanes, their preparation and use” (priority 1997, dated 2005)
pIC50: −log10 of the molar value. Where two headings read alike, the source gives them in different places.

Legend:
[1] = biological target: T1, neuronal nicotinic receptors (α4β2 subtype high affinity site) (Rattus norvegicus, UniProt P09483+P12390); assay: In vitro inhibition of 3H-epibatidin binding
T1 construct: The forebrain (÷cerebellum) from a male Wistar rat (150-250 g) is homogenized; from tissue; host or cells: rat forebrain (without cerebellum) membrane homogenate
Procedure: The high affinity binding site for ^3H-epibatidin is most certainly binding to the α4β2 subtype of nicotinic receptors. The identity of the low affinity site is still unknown; does it represent a second nicotinic receptor or a second site in the same receptor.
Tissue preparation: Preparations are performed at 0-4° C. unless otherwise indicated. The forebrain (÷cerebellum) from a male Wistar rat (150-250 g) is homogenized for 10-20 sec in 20 ml Tris, HCl (50 mM, pH 7.4) using an Ultra-Turrax homogenizer. The tissue suspension is centrifuged at 27,000×g for 10 min. The supernatant is discarded and the pellet is washed three times by centrifugation at 27,000×g for 10 min in 20 ml fresh buffer, and the final pellet is resuspended in fresh buffer (400 ml per g of original tissue) and used for binding assays.
Assay: Aliquots of 2.0 ml homogenate are added to 0.100 ml of test solution and 0.100 ml of ^3H-epibatidin (0.3 nM, final concentration), mixed and incubated for 60 min at room temperature. Non-specific binding is determined using (−)-nicotine (30 μM, final concentration). After incubation the samples are poured directly onto Whatman GF/C glass fibre filters (presoaked in 0.1% PEI for at least 20 min) under suction and immediately washed with 2×5 ml ice-cold buffer. The amount of radioactivity on the filters is determined by conventional liquid scintillation counting. Specific binding is total binding minus non-specific binding.

[2] = biological target: nAChRs comprised of α4 and β2 subunits (Rattus norvegicus, UniProt P09483+P12390); assay: In vitro inhibition of 3H-cytisine binding
Procedure: The predominant subtype with high affinity for nicotine is comprised of α4 and β2 subunits. nAChRs of the latter type can selectively be labelled by the nicotine agonist ^3H-cytisine.
Tissue Preparation: Preparations are performed at 0-4° C. unless otherwise indicated. […] The homogenate is centrifuged at 27,000×g for 10 min. The supernatant is discarded and the pellet is resuspended in fresh buffer and centrifuged a second time. The final pellet is resuspended in fresh buffer (35 ml per g of original tissue) and used for binding assays.
Assay: Aliquots of 500 μl homogenate are added to 25 μl of test solution and 25 μl of ^3H-cytisine (1 nM, final concentration), mixed and incubated for 90 min at 2° C. Non-specific binding is determined using (−)-nicotine (100 μM, final concentration). After incubation the samples are added 5 ml of ice-cold buffer and poured directly onto Whatman GF/C glass fibre filters under suction and immediately washed with 2×5 ml ice-cold buffer. The amount of radioactivity on the filters is determined by conventional liquid scintillation counting. Specific binding is total binding minus non-specific binding.

[3] = biological target: nAChR formed by the α7 subunit isoform (Rattus norvegicus, UniProt Q05941); assay: biochemical; assay type: binding
[4] = rat cerebral cortex homogenate, 1 nM 3H-cytisine, 90 min at 2° C., read-out: 3H-cytisine IC50
[5] = rat forebrain homogenate, 0.3 nM 3H-epibatidin, 60 min at room temperature, read-out: 3H-epibatidin IC50

nAChR formed by the α7 subunit isoform, sequence (Q05941 23-502): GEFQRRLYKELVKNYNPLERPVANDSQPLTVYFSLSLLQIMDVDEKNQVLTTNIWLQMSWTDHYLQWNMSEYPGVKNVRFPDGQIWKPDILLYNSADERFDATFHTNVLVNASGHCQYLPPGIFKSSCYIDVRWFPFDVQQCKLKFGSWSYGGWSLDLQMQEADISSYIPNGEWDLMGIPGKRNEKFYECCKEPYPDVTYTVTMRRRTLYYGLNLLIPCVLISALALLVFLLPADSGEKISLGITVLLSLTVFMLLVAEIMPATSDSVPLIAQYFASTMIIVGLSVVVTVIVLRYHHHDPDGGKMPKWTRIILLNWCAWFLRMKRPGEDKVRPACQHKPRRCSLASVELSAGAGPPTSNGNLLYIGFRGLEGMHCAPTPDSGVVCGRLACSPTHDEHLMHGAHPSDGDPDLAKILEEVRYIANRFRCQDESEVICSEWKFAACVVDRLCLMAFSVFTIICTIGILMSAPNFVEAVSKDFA
nAChRs comprised of α4 and β2 subunits, sequence (P09483 31-630): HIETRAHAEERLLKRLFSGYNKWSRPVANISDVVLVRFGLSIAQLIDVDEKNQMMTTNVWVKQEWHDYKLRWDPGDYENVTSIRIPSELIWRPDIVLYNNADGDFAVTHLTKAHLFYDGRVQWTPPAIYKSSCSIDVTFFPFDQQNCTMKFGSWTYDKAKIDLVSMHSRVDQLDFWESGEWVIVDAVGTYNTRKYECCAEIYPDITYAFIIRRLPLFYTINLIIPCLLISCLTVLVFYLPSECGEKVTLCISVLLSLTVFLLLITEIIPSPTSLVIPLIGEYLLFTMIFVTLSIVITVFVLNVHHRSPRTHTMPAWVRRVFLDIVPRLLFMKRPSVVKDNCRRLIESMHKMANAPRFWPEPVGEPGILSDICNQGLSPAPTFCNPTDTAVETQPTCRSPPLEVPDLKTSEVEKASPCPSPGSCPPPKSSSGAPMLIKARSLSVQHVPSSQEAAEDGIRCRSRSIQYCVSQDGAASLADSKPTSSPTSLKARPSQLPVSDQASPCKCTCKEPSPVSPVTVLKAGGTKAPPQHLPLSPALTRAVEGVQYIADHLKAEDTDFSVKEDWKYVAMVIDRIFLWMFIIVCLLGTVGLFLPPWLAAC
nAChRs comprised of α4 and β2 subunits, sequence (P12390 25-500): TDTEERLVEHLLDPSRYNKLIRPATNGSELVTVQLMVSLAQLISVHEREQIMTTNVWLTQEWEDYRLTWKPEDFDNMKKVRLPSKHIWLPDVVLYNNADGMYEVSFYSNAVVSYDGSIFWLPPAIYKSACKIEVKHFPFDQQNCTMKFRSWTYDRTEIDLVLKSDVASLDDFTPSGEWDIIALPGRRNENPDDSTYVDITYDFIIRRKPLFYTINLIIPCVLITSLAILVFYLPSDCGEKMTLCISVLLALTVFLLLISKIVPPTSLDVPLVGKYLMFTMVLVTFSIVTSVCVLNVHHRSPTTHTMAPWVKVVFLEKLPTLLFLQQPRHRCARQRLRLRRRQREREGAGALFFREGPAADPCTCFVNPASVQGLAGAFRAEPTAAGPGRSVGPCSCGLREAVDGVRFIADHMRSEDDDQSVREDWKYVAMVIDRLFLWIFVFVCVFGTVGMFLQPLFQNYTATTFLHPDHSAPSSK
T1 sequence (P09483 31-630): as the sequence (P09483 31-630) above
T1 sequence (P12390 25-500): as the sequence (P12390 25-500) above

Compound: c1ccc2nc(N3CCCNCC3)cnc2c1 [Compound 2L, 1-(2-Quinoxalinyl)-homopiperazine]
- pIC50 [1]: 5.70
- pIC50 [2, 4]: 6.59
- pIC50 [3]: 4.57

Compound: COc1cncc(N2CCCN(C)C2)c1 [Compound 2M, 1-(5-Methoxy-3-pyridyl)-3-methyl-1,3-diazacyclohexane]
- pIC50 [1, 5]: 5.57
- pIC50 [2]: 7.05
- pIC50 [3]: < 4.52

Compound: COc1cncc(N2CCNCC2)c1 [Compound 3B, 1-(5-Methoxy-3-pyridyl)-piperazine]
- pIC50 [1]: 5.35
- pIC50 [2, 4]: 6.10
- pIC50 [3]: < 4.52

Compound: COc1cncc(N2CCCN(C)CC2)c1 [Compound 3E, 1-(5-Methoxy-3-pyridyl)-4-methyl-homopiperazine]
- pIC50 [1, 5]: 6.12
- pIC50 [2]: 7.03
- pIC50 [3]: 4.59

Compound: CCOc1cncc(N2CCCNCC2)c1 [Compound 3H, 1-(5-Ethoxy-3-pyridyl)-homopiperazine]
- pIC50 [1]: 8.00
- pIC50 [2]: 8.70
- pIC50 [3]: 4.70

Compound: Clc1cncc(N2CCCNCC2)n1 [Compound 3K, 1-(6-Chloro-2-pyrazinyl)-homopiperazine]
- pIC50 [1]: 6.80
- pIC50 [2]: 7.70
- pIC50 [3]: 5.25

Compound: Clc1cncc(N2CCNCC2)c1 [Compound 4B, 1-(5-Chloro-3-pyridyl)-piperazine]
- pIC50 [1]: 5.52
- pIC50 [2, 4]: 6.51
- pIC50 [3]: < 4.52

Compound: CCOc1cncc(N2CCCN(C)CC2)c1 [Compound 4E, 1-(5-Ethoxy-3-pyridyl)-4-methyl-homopiperazine]
- pIC50 [1, 5]: 6.52
- pIC50 [2]: 7.30
- pIC50 [3]: < 4.52

Compound: CN1CCN(c2cncc(Cl)c2)CC1 [Compound 5A, 1-(5-Chloro-3-pyridyl)-4-Methyl-piperazine]
- pIC50 [1]: 6.19
- pIC50 [2]: 7.10
- pIC50 [3]: 4.13

Compound: CN1CCCN(c2cncc(-c3ccccc3)c2)CC1 [Compound 5E, 4-Methyl-1-(5-phenyl-3-pyridyl)-homopiperazine]
- pIC50 [1]: 5.82
- pIC50 [2, 4]: 6.70
- pIC50 [3]: 4.80

Compound: COc1cc(N2CCCNCC2)cnc1Cl [Compound 5F, 1-(6-Chloro-5-methoxy-3-pyridyl)-homopiperazine]
- pIC50 [1]: 8.30
- pIC50 [2]: 9.15
- pIC50 [3]: 6.05

Compound: COCCOc1cncc(N2CCCNCC2)c1 [Compound 5H, 1-(5-Methoxyethoxy-3-pyridyl)-homopiperazine]
- pIC50 [1]: 7.70
- pIC50 [2]: 8.70
- pIC50 [3]: 4.72

Compound: Cc1ccc(N2CCCNCC2)nn1 [Compound 5K, 1-(6-Methyl-3-pyridazinyl)-homopiperazine]
- pIC50 [1]: 6.13
- pIC50 [2]: 6.80
- pIC50 [3]: 5.32

Compound: CN1CCN(c2cncc(-c3ccccc3)c2)CC1 [Compound 6A, 4-Methyl-1-(5-phenyl-3-pyridyl)-piperazine]
- pIC50 [1, 5]: 5.96
- pIC50 [2]: 7.10
- pIC50 [3]: < 4.52

Compound: COc1cncc(N2CCCNCCC2)c1 [Compound 6B, 1-(5-Methoxy-3-pyridyl)-1,5-diazacyclooctane]
- pIC50 [1]: 8.49
- pIC50 [2]: 9.00
- pIC50 [3]: 5.60

Compound: CCCCOc1cncc(N2CCCN(C)CC2)c1 [Compound 6E, 1-(5-Butoxy-3-pyridyl)-4-methyl-homopiperazine]
- pIC50 [1, 5]: 6.62
- pIC50 [2]: 7.35
- pIC50 [3]: < 4.52

Compound: CC(C)COc1cncc(N2CCCNCC2)c1 [Compound 6H, 1-[5-(2-Methyl-propoxy)-3-pyridyl]-homopiperazine]
- pIC50 [1]: 8.00
- pIC50 [2]: 8.70
- pIC50 [3]: < 4.52

Compound: FC(F)(F)c1cncc(N2CCCNCC2)c1 [Compound 6K, 1-(5-Triflouromethyl-3-pyridyl)-homopiperazine]
- pIC50 [1, 5]: 7.40
- pIC50 [2, 4]: 8.05
- pIC50 ([3]; read-out: 3H-α-bungarotoxin IC50): 5.19

Compound: CCOc1cncc(N2CCN(C)CC2)c1 [Compound 7A, 1-(5-Ethoxy-3-pyridyl)-4-methyl-piperazine]
- pIC50 [1]: 7.05
- pIC50 [2]: 8.22
- pIC50 [3]: < 4.52

Compound: Clc1ccc(N2CCCNCCC2)nn1 [Compound 7B, 1-(6-Chloro-3-pyridazinyl)-1,5-diazacyclooctane]
- pIC50 [1, 5]: 6.82
- pIC50 [2]: 7.52
- pIC50 [3]: 6.34

Compound: COCCOc1cncc(N2CCCN(C)CC2)c1 [Compound 7E, 1-(5-Methoxyethoxy-3-pyridyl)-4-methyl-homopiperazine]
- pIC50 [1, 5]: 6.26
- pIC50 [2]: 7.15
- pIC50 [3]: < 4.52

Compound: Clc1ccc(N2CCCCNCC2)nn1 [Compound 8B, 1-(6-Chloro-3-pyridazinyl)-1,4-diazacyclooctane]
- pIC50 [1]: 6.04
- pIC50 [2, 4]: 6.26
- pIC50 [3]: 5.26

Compound: CC(C)COc1cncc(N2CCCN(C)CC2)c1 [Compound 8E, 4-Methyl-1-[5-(2-methyl-propyloxy)-3-pyridyl]-homopiperazine]
- pIC50 [1, 5]: 6.35
- pIC50 [2]: 7.15
- pIC50 [3]: < 4.52

Compound: Brc1ccc(N2CCCNCC2)cn1 [Compound 8K, 1-(6-Bromo-3-pyridyl)-homopiperazine]
- pIC50 [1]: 8.00
- pIC50 [2, 4]: 9.00
- pIC50 [3]: 6.21

Compound: CCOc1cncc(N2CCN(CC)CC2)c1 [Compound 9D, 1-(5-Ethoxy-3-pyridyl)-4-ethyl-piperazine]
- pIC50 [1]: 6.68
- pIC50 [2]: 7.15
- pIC50 [3]: < 4.52

Compound: CN1CCCN(c2cncc(OCC3CC3)c2)CC1 [Compound 9E, 1-(5-Cyclopropylmethoxy-3-pyridyl)-4-methyl-homopiperazine]
- pIC50 [1, 5]: 5.32
- pIC50 [2]: 7.11
- pIC50 [3]: < 4.52

Compound: c1ncc(N2CCCNCC2)cc1OCC1CC1 [Compound 9H, 1-(5-Cyclopropylmethoxy-3-pyridyl)-homopiperazine]
- pIC50 [1]: 8.22
- pIC50 [2]: 9.00
- pIC50 [3]: < 4.52

Compound: CCCOc1cncc(N2CCCN(C)CC2)c1 [Compound 10E, 4-Methyl-1-(5-propyloxy-3-pyridyl)-homopiperazine]
- pIC50 [1, 5]: 6.54
- pIC50 [2]: 7.22
- pIC50 [3]: < 4.52

Compound: CCCOc1cncc(N2CCCNCC2)c1 [Compound 10H, 1-(5-Propyloxy-3-pyridyl)-homopiperazine]
- pIC50 [1]: 8.27
- pIC50 [2]: 9.05
- pIC50 [3]: < 4.52

Compound: CCCCCCOc1cncc(N2CCCN(C)CC2)c1 [Compound 11E, 1-(5-Hexyloxy-3-pyridyl)-4-methyl-homopiperazine]
- pIC50 [1]: 6.60
- pIC50 [2, 4]: 6.10
- pIC50 [3]: < 4.52

Compound: CC(C)CCOc1cncc(N2CCCN(C)CC2)c1 [Compound 12E, 4-Methyl-1-[5-(3-methyl-butoxy)-3-pyridyl]-homopiperazine]
- pIC50 [1, 5]: 6.57
- pIC50 [2]: 7.26
- pIC50 [3]: < 4.52

Compound: CN1CCCN(c2cncc(OCC3CCCCC3)c2)CC1 [Compound 14E, 1-(5-Cyclohexylmethoxy-3-pyridyl)-4-methyl-homopiperazine]
- pIC50 [1]: 6.32
- pIC50 [2, 4]: 6.70
- pIC50 [3]: < 4.52

Compound: CCCCCOc1cncc(N2CCCN(C)CC2)c1 [Compound 15E, 4-Methyl-1-(5-pentyloxy-3-pyridyl)-homopiperazine]
- pIC50 [1, 5]: 6.68
- pIC50 [2]: 7.52
- pIC50 [3]: < 4.52

Compound: CCCCCCCOc1cncc(N2CCCN(C)CC2)c1 [Compound 16E, 1-(5-Heptyloxy-3-pyridyl)-4-methyl-homopiperazine]
- pIC50 [1]: 6.15
- pIC50 [2, 4]: 6.55
- pIC50 [3]: < 4.52

Compound: C/C=C/Oc1cncc(N2CCCN(C)CC2)c1 [Compound 17E, trans-4-Methyl-1-(5-propyl-1-en-oxy-3-pyridyl)-homopiperazine]
- pIC50 [1]: 7.05
- pIC50 [2]: 7.70
- pIC50 [3]: < 4.52

Compound: CN1CCCN(c2cncc(SCc3ccccc3)c2)CC1 [Compound 18E, 4-Methyl-1-(5-thiobenzyl-3-pyridyl)-homopiperazine]
- pIC50 [1]: 6.10
- pIC50 [2, 4]: 6.22
- pIC50 [3]: 4.82

Compound: CN1CCCN(c2cncc(-c3cccnc3)c2)CC1 [Compound 19E, 4-Methyl-1-[5-(3-pyridyl)-3-pyridyl]-homopiperazine]
- pIC50 [1]: 5.74
- pIC50 [2, 4]: 6.77
- pIC50 [3]: < 4.52

Compound: CN1CCCN(c2cncc(OC3CCCC3)c2)CC1 [Compound 25E, 1-(5-Cyclopentyloxy-3-pyridyl)-4-methyl-homopiperazine]
- pIC50 [1, 5]: 6.21
- pIC50 [2]: 7.10
- pIC50 [3]: < 4.52
